PubChem BioAssay (NCI)
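Method: 48-hour compound exposure of cells in 96-well plates, five concentrations, linear interpolation of endpoints. At the GI50, growth is halved. TGI marks complete inhibition of growth.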

Experiments:
Assay in all cases: NCI anticancer screen, dose series, 48 h
A549 NSCLC = system: A549 NSCLC
CCRF-CEM leukemia = system: CCRF-CEM leukemia
HL-60(TB) leukemia = system: HL-60(TB) leukemia
MDA-MB-231 breast = system: MDA-MB-231 breast
MOLT-4 leukemia = system: MOLT-4 leukemia
NCI-H226 lung = system: NCI-H226 lung
NCI-H460 lung = system: NCI-H460 lung
RPMI-8226 leukemia = system: RPMI-8226 leukemia
SF-295 CNS = system: SF-295 CNS
SNB-19 CNS = system: SNB-19 CNS

Row | Structure (SMILES) | GI50 (A549 NSCLC) | TGI (A549 NSCLC) | GI50 (CCRF-CEM leukemia) | TGI (CCRF-CEM leukemia) | GI50 (HL-60(TB) leukemia) | TGI (HL-60(TB) leukemia) | GI50 (MDA-MB-231 breast) | TGI (MDA-MB-231 breast) | GI50 (MOLT-4 leukemia) | TGI (MOLT-4 leukemia) | GI50 (NCI-H226 lung) | TGI (NCI-H226 lung) | GI50 (NCI-H460 lung) | TGI (NCI-H460 lung) | GI50 (RPMI-8226 leukemia) | TGI (RPMI-8226 leukemia) | GI50 (SF-295 CNS) | TGI (SF-295 CNS) | GI50 (SNB-19 CNS) | TGI (SNB-19 CNS)
1 | COc1ccc(C(=O)CC2(O)C(=O)Nc3c(Cl)ccc(Cl)c32)cc1 (centres undefined) | 1.55 µM | > 100 µM | 2.03 µM | > 26.3 µM | 0.384 µM | 3.51 µM | 4.27 µM | > 92.4 µM | 3.18 µM | > 78.5 µM | 30.6 µM | > 100 µM | 0.97 µM | 40.4 µM | 2.64 µM | 15.5 µM | 1.35 µM | 14.8 µM | 4.68 µM | > 100 µM
2 | O=P(O)(O)OC1C(OP(=O)(O)O)C(OP(=O)(O)O)C(OP(=O)(O)O)C(OP(=O)(O)O)C1OP(=O)(O)O (centres undefined) | > 2000 µM | > 2000 µM | > 100 µM | > 2000 µM | > 2000 µM | > 2000 µM | > 2000 µM | > 2000 µM | > 1510 µM | > 2000 µM | > 1070 µM | > 1850 µM | > 2000 µM | > 2000 µM | > 2000 µM | > 2000 µM | > 2000 µM | > 2000 µM | > 2000 µM | > 2000 µM
3 | COc1ccc(CCNc2nc3ccccc3c3[nH]c4ccccc4c23)cc1OC | 2.66 µM | 8.24 µM | 1.87 µM | 13.8 µM | 1.65 µM | 3.88 µM | 2.21 µM | 8.03 µM | 3.23 µM | 12.3 µM | 7.82 µM | 25 µM | 2.1 µM | 5.93 µM | 2.18 µM | 5.24 µM | 2.55 µM | 9.02 µM | 3.84 µM | 15.4 µM
4 | COc1ccc(/C=C2/SC(=Nc3c(C)nn(-c4ccccc4)c3N)NC2=O)cc1 | 2.74 µM | 24 µM | 2.14 µM | 20.8 µM | 2.9 µM | 10.7 µM | 9.5 µM | 69.7 µM | 8.4 µM | > 100 µM | 8.28 µM | 45.3 µM | 3.04 µM | 10.7 µM | 3.9 µM | 22.9 µM | 2.76 µM | 13.2 µM | 7.68 µM | > 100 µM
5 | CC(C)(O)Cn1c(=O)c(Oc2ccc(F)cc2F)cc2cnc(NC3CCOCC3)nc21 | > 25 µM | > 25 µM | > 25 µM | > 25 µM | > 25 µM | > 25 µM | > 25 µM | > 25 µM | > 25 µM | > 25 µM | > 25 µM | > 25 µM | > 25 µM | > 25 µM | > 25 µM | > 25 µM | > 25 µM | > 25 µM | > 25 µM | > 25 µM
6 | COc1cc(-c2cc(-c3ccc(N(C)C)cc3)nc(N3CCC(O)CC3)c2C#N)cc(OC)c1OC | 0.378 µM | – | 0.598 µM | > 100 µM | 0.574 µM | 4.13 µM | 0.392 µM | 3.55 µM | 0.706 µM | 10.7 µM | 0.717 µM | – | 0.249 µM | 1.9 µM | 0.181 µM | 1.74 µM | 0.212 µM | 0.518 µM | 2.44 µM | 23.8 µM
7 | COc1c(O)c2ccccc2c2cc(O)ccc12 | – | 23.9 µM | – | 73.8 µM | – | 27 µM | – | 19.4 µM | – | 77.4 µM | – | 31.6 µM | – | 23.3 µM | – | 35.7 µM | – | 23.5 µM | – | 28.2 µM
8 | COc1ccccc1/C=C1\COc2ccc(O)c(O)c2C1=O | 2.95 µM | > 100 µM | 0.286 µM | 2.11 µM | 0.407 µM | 4.49 µM | 2.24 µM | 10.2 µM | 1.79 µM | 19.1 µM | 1.9 µM | 5.08 µM | 1.83 µM | 4.09 µM | 0.235 µM | 0.693 µM | 4.49 µM | > 100 µM | 2.61 µM | 26.2 µM
9 | CCOC(=O)c1cnc2ccc(Cl)cc2c1NCCCN(C)C | 21.2 µM | 67.7 µM | 22.2 µM | > 100 µM | 19.4 µM | 50.8 µM | 19.5 µM | 86.4 µM | 16.3 µM | 63.5 µM | 19.9 µM | 92.2 µM | 22.2 µM | 82.7 µM | 20.7 µM | 54.9 µM | 22.9 µM | > 100 µM | 51.1 µM | > 100 µM
10 | NC(=O)C/C=C/CC(N)=O | – | > 100 µM | – | > 100 µM | – | > 100 µM | – | > 100 µM | – | – | – | > 100 µM | – | > 100 µM | – | > 100 µM | – | > 100 µM | – | > 100 µM
11 | COc1ccc([C@H]2c3cc(OC)c(OC)cc3C=C(C=O)C2CO)cc1OC (some centres undefined) | 52.5 µM | > 100 µM | 19 µM | > 100 µM | 3.65 µM | > 100 µM | 6.74 µM | > 100 µM | > 100 µM | > 100 µM | > 100 µM | > 100 µM | 3.51 µM | > 100 µM | 9.22 µM | > 100 µM | 1.79 µM | 5.85 µM | 8.56 µM | > 100 µM
12 | COc1cc[c]([Hg][Cl])cc1 | 23.8 µM | 40.8 µM | 1.06 µM | 5.4 µM | 3.08 µM | 7.67 µM | 2.19 µM | 4.92 µM | 1.64 µM | 6.59 µM | 22.9 µM | 50.6 µM | 10.3 µM | 25.5 µM | 3.39 µM | 14.7 µM | 15.5 µM | 29.7 µM | 4.59 µM | 16.6 µM
13 | COc1ccc(NC(=O)c2ccc(NC3=C(Cl)C(=O)N(Cc4ccccc4)C3=O)cc2)cc1 | 10.4 µM | 29.9 µM | – | – | 2.16 µM | – | 11.9 µM | 26.2 µM | 2.6 µM | > 100 µM | 14.5 µM | 35.9 µM | 53.1 µM | > 100 µM | 2.38 µM | 8.06 µM | 3.52 µM | 10.4 µM | 18 µM | 40.4 µM
